Records with an inconclusive call do not appear. Activity calls are given as the source filed them. The rule behind the calls is not given here; tested in MIN6 cells.
Columns and labels:
[1] = cell-permeable autofluorescent compounds in GFP channel, dose response, artefact control, imaging, high-content imaging (AID 2124); settings: cells, GFP-channel autofluorescence, high-content imaging; cell count; at 10 µM;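 for cell count: cells exposed to compound for 48 hours before fixing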
[2] = test system: cells, GFP-channel autofluorescence, high-content imaging; experiment: as above

Cc1cccn2c(=O)c(/C=C3\SC(=S)N(CC(C)C)C3=O)c(NCCCOC(C)C)nc12
cell count [1]: 2810 cells | EC50 [2]: > 16 µM (inactive)

O=c1oc2c3c4c(cc2c(C(F)(F)F)c1CCN1CCOCC1)CCCN4CCC3
cell count [1]: 3400 cells | EC50 [2]: 8.25 µM

CC(=O)Nc1cccc(C(=O)/C=C/c2ccc(N(C)C)cc2)c1
cell count [1]: 2940 cells | EC50 [2]: 12 µM (inactive)

N#Cc1cccc(NC(=O)CSc2ccc3c4c(cccc24)C(=O)c2ccccc2-3)c1
cell count [1]: 3090 cells | EC50 [2]: 4.73 µM

O=C1c2cccc3c(N4CCCCC4)ccc(c23)C(=O)N1c1ccccc1O
cell count [1]: 3140 cells | EC50 [2]: 15.3 µM (inactive)

Cc1ccc(/C(C#N)=C\c2ccc(N3CCOCC3)o2)cc1
cell count [1]: 1110 cells | EC50 [2]: 10.3 µM (inactive)

Cc1nonc1NC(=O)CSc1nc2c(C)cccc2cc1C#N
cell count [1]: 3270 cells | EC50 [2]: 9.41 µM

CCCN1C(=O)/C(=C/c2c(N3CCNC(=O)C3CC(=O)OCC)nc3c(C)cccn3c2=O)SC1=S (stereo not given)
cell count [1]: 2790 cells | EC50 [2]: 5.56 µM

CCN(CC)c1ccc2cc(/C(N)=N/NC(=O)c3cccs3)c(=O)oc2c1
cell count [1]: 3050 cells | EC50 [2]: 8.97 µM

CC(C)/C=C1\CC/C(=C\c2ccc(N(C)C)cc2)C1=O
cell count [1]: 2850 cells | EC50 [2]: 9.45 µM

Cn1cc(/C=C2\SC(=S)N(NC(=O)c3ccccc3Cl)C2=O)c2ccccc21
cell count [1]: 3740 cells | EC50 [2]: 13.9 µM (inactive)

CCN1CC=C2C(C1)C(c1ccc(Cl)s1)C(C#N)=C(N)C2(C#N)C#N (stereo not given)
cell count [1]: 3020 cells | EC50 [2]: 11.5 µM (inactive)

Cc1ccc(NS(=O)(=O)c2cc([N+](=O)[O-])ccc2N/N=C/c2sc(N3CCOCC3)nc2-c2ccccc2)c(C)c1
cell count [1]: 2790 cells | EC50 [2]: 4.45 µM

Cc1ccc(CNc2ccc3c(c2)OCO3)cc1
cell count [1]: 2720 cells | EC50 [2]: 6.18 µM

CCOC(=O)Cc1csc(NC(=O)c2sc3nc4c(C)cc(C)cc4cc3c2N)n1
cell count [1]: 2560 cells | EC50 [2]: 10.9 µM (inactive)

CC(=O)c1c(C)[nH]c(-c2ccccc2)nc1=S
cell count [1]: 3120 cells | EC50 [2]: 2.37 µM

O=C1c2cccc3c(O)ccc(c23)C(=O)N1Cc1ccccc1
cell count [1]: 2660 cells | EC50 [2]: > 16 µM (inactive)

N#CC1=C(N)C(C#N)(C#N)[C@H](c2ccoc2)[C@H]2CN(Cc3ccccc3)CC=C12
cell count [1]: 2630 cells | EC50 [2]: 10.3 µM (inactive)

O=c1oc2cc(O)ccc2cc1-c1nc2c(s1)CCc1ccccc1-2
cell count [1]: 2720 cells | EC50 [2]: 7.42 µM

N#C/C(=C/c1ccc(N2CCOCC2)o1)c1ccc(Cl)cc1
cell count [1]: 1320 cells | EC50 [2]: 7.31 µM

C/C(=N\Nc1ccc([N+](=O)[O-])cc1)c1cc2ccccc2o1
cell count [1]: 2980 cells | EC50 [2]: 8.87 µM

COc1cc2c(cc1OC)C1=CC(=O)C(=O)N1C(C)(C)C2
cell count [1]: 2990 cells | EC50 [2]: 5.78 µM

CN(C)c1ccc(/C=C/C(=O)c2c(O)c3ccccc3oc2=O)cc1
cell count [1]: 3230 cells | EC50 [2]: > 16 µM (inactive)

CN1C(=O)C(=Cc2ccc(N3CCCCC3)o2)C(=O)N(C)C1=S
cell count [1]: 2940 cells | EC50 [2]: > 16 µM (inactive)

Cc1ccc(N2C(=O)C3C(C(=O)c4ccccc4)=NN(c4ccccc4)C3C2=O)cc1 (stereo not given)
cell count [1]: 2980 cells | EC50 [2]: > 16 µM (inactive)

CCN1CCc2c(sc(NC(=S)NC(=O)c3ccc(Cl)cc3)c2C(N)=O)C1
cell count [1]: 3040 cells | EC50 [2]: 6.61 µM

CC(=O)Nc1ccc(N=Cc2c(O)c(C(=O)Nc3ccccc3)cc3ccccc23)cc1
cell count [1]: 1540 cells | EC50 [2]: 11.1 µM (inactive)

COc1ccc(CN2C(=O)/C(=C/c3ccc(-c4ccc(Cl)c(C(=O)O)c4)o3)SC2=S)cc1
cell count [1]: 3020 cells | EC50 [2]: > 16 µM (inactive)

COc1cccc2sc(NNC(=O)C3=COCCO3)nc12
cell count [1]: 3320 cells | EC50 [2]: 8.52 µM

CCCCOc1ccc(-c2cc(C(F)(F)F)c(C#N)c(SCC(=O)O)n2)cc1
cell count [1]: 3060 cells | EC50 [2]: 12.3 µM (inactive)

C=CCN1C=CC(=CC=C(C#N)C#N)C=C1
cell count [1]: 2960 cells | EC50 [2]: 8.1 µM

COc1ccc(/C=C2\C(=O)NC(=S)N2C(=O)c2ccc(F)cc2)cc1
cell count [1]: 2980 cells | EC50 [2]: > 16 µM (inactive)

CCCN1C=CC(=C/C=C(\C#N)C(=O)OCC)C=C1
cell count [1]: 2900 cells | EC50 [2]: 6.81 µM

CNC(=O)c1c(NC(=O)c2ccc(S(=O)(=O)N3CCCc4ccccc43)cc2)sc2c1CCN(C)C2
cell count [1]: 3190 cells | EC50 [2]: 8.08 µM

CC(C)(C)NC(=S)N/N=C\c1ccc(-c2ccc([N+](=O)[O-])cc2)o1
cell count [1]: 3000 cells | EC50 [2]: 11.4 µM (inactive)

N#C/C(=C/c1ccc(N2CCCCC2)o1)c1cccc(F)c1
cell count [1]: 1730 cells | EC50 [2]: 5.32 µM

CCCN1C(=O)S/C(=C\c2ccc(N3CCOCC3)o2)C1=O
cell count [1]: 194 cells | EC50 [2]: > 16 µM (inactive)

O=C(C1=C(O)C(=O)N(c2nccs2)C1c1ccccc1)c1cc2ccccc2o1 (stereo not given)
cell count [1]: 2920 cells | EC50 [2]: 8.55 µM

Cc1c(-c2ccc(O)cc2)nc2nc(-c3ccccc3)c(-c3ccccc3)nn12
cell count [1]: 3200 cells | EC50 [2]: > 16 µM (inactive)

CCCN1C=CC(=CC=C(C#N)C#N)C=C1
cell count [1]: 3220 cells | EC50 [2]: 7.84 µM

CCOCCCNc1nc2c(C)cccn2c(=O)c1/C=C1\SC(=S)N(C(C)CC)C1=O (stereo not given)
cell count [1]: 2910 cells | EC50 [2]: > 16 µM (inactive)

CN1CC=C2C(C#N)=C(N)C(C#N)(C#N)[C@H](c3ccoc3)[C@H]2C1
cell count [1]: 1690 cells | EC50 [2]: > 16 µM (inactive)

O=[N+]([O-])c1ccc(N2N=C(c3ccco3)CC2c2ccccc2)cc1 (stereo not given)
cell count [1]: 2840 cells | EC50 [2]: 6.38 µM

CN1/C(=C\C=C2/SC(=S)NC2=O)C(C)(C)c2ccccc21
cell count [1]: 147 cells | EC50 [2]: 6.13 µM

COc1ccc(NC(=O)/C(C#N)=C\c2ccc(N3CCOCC3)o2)cc1
cell count [1]: 3270 cells | EC50 [2]: 11.6 µM (inactive)

CN1CC=C2C(C#N)=C(N)C(C#N)(C#N)[C@H](c3cccs3)[C@H]2C1
cell count [1]: 2820 cells | EC50 [2]: > 16 µM (inactive)

CC(=O)n1c(C=Nc2ccccc2)c(O)c2ccccc21
cell count [1]: 3060 cells | EC50 [2]: 8.96 µM

Nc1c(C(=O)Nc2nc3ccccc3s2)sc2nc(-c3cccs3)ccc12
cell count [1]: 217 cells | EC50 [2]: 8.63 µM

CC1=C/C(=C\C=C(C#N)C#N)N(C)c2ccccc21
cell count [1]: 3120 cells | EC50 [2]: 3.23 µM

Cc1cc(N2CCCC2)ccc1/C=C1/C(=O)N(C)C(=S)N1C
cell count [1]: 2940 cells | EC50 [2]: 7.11 µM

CN1CC=C2C(C#N)=C(N)C(C#N)(C#N)C(c3ccncc3)C2C1 (stereo not given)
cell count [1]: 2850 cells | EC50 [2]: 14.8 µM (inactive)

O=c1c(Cl)c2oc3ccccc3nc-2c2ccccc12
cell count [1]: 2670 cells | EC50 [2]: 6.42 µM

CC(=O)c1c(N2CCOCC2)[nH]c(-c2ccccc2)nc1=S
cell count [1]: 3510 cells | EC50 [2]: 1.05 µM

CCOC(=O)N1CCN(/C=C(\C#N)c2nc3ccccc3s2)CC1
cell count [1]: 2980 cells | EC50 [2]: 11.7 µM (inactive)

CN1/C(=C\C=C(/C#N)C(=O)Nc2ccccc2F)C(C)(C)c2ccccc21
cell count [1]: 2910 cells | EC50 [2]: 6.93 µM

O=[N+]([O-])c1ccc(/C=C/C2=NN(c3ccccc3)C(c3ccco3)C2)o1 (stereo not given)
cell count [1]: 3240 cells | EC50 [2]: 3.87 µM

COc1ccc(/C=C2\CC/C(=C\c3ccc(OC)cc3OC)C2=O)c(OC)c1
cell count [1]: 3090 cells | EC50 [2]: 6.73 µM

CN1CC=C2C(C#N)=C(N)C(C#N)(C#N)C(c3cccc(Cl)c3Cl)C2C1 (stereo not given)
cell count [1]: 3010 cells | EC50 [2]: 11.9 µM (inactive)

Cc1c(N=C2N=C(NC(=O)c3cccs3)c3ccccc32)c(=O)n(-c2ccccc2)n1C
cell count [1]: 2570 cells | EC50 [2]: 11.8 µM (inactive)

COc1cc(OC)c(-c2c3cc(O)c(=O)cc-3oc3cc(O)c(O)cc23)cc1OC
cell count [1]: 3000 cells | EC50 [2]: 13.5 µM (inactive)

CCCN1C(=O)S/C(=C/c2ccc(N3CCOCC3)o2)C1=O
cell count [1]: 3210 cells | EC50 [2]: 5.4 µM

CCCNc1c(F)c(F)c2c(C)c3ccccc3nc2c1F
cell count [1]: 3140 cells | EC50 [2]: 10.9 µM (inactive)

O=C(O)c1ccccc1N/N=C/c1c(Sc2nnnn2-c2ccccc2)nc2ccccn2c1=O
cell count [1]: 3260 cells | EC50 [2]: 10.7 µM (inactive)

C=CCN1C(=O)/C(=C\C=C2\N(C)c3ccccc3C2(C)C)SC1=S
cell count [1]: 2620 cells | EC50 [2]: 6.86 µM

Cc1cc2c(C(F)(F)F)cc(=O)oc2c2c1NCCC2
cell count [1]: 3250 cells | EC50 [2]: 6.77 µM

CC(C)N1CC=C2C(C#N)=C(N)C(C#N)(C#N)C(c3ccccc3)C2C1 (stereo not given)
cell count [1]: 3040 cells | EC50 [2]: 8.22 µM

N#C/C(=C\c1ccc(N2CCOCC2)o1)C(=O)NCCc1ccccc1
cell count [1]: 3060 cells | EC50 [2]: 8.69 µM

Oc1ccc(/C=N/Nc2ccnc3cc(Cl)ccc23)c(O)c1
cell count [1]: 1690 cells | EC50 [2]: 10.3 µM (inactive)

COc1cc([C@@H]2[C@H]3CNCC=C3C(C#N)=C(N)C2(C#N)C#N)ccc1OC(C)C
cell count [1]: 3160 cells | EC50 [2]: 13.6 µM (inactive)

COc1ccc(C2C(C(C)=O)=C(C)N=c3s/c(=C\c4cc(C)n(C)c4C)c(=O)n32)c(OC)c1 (stereo not given)
cell count [1]: 3650 cells | EC50 [2]: 6.06 µM

N#C/C(=C\N1CCN(Cc2ccc3c(c2)OCO3)CC1)c1nc2ccccc2s1
cell count [1]: 3300 cells | EC50 [2]: 10.7 µM (inactive)

Cc1ccc(S(=O)(=O)CCSc2nc(C)cc(C(F)(F)F)c2C#N)cc1
cell count [1]: 2460 cells | EC50 [2]: 7.21 µM

CCCN1C(=O)/C(=C/C=C2\N(CC)c3ccccc3C2(C)C)SC1=S
cell count [1]: 3030 cells | EC50 [2]: 2.71 µM

CN1CCS/C1=C/C=C1/SC(=S)N(Cc2ccccc2)C1=O
cell count [1]: 2970 cells | EC50 [2]: 8.87 µM

CCN(CC)c1ccc(/C=C(\C#N)C(=O)c2ccc(Br)cc2)cc1
cell count [1]: 2740 cells | EC50 [2]: 5.14 µM

Cc1c2ccccc2nc2c(F)c(NC(C)C)c(F)c(F)c12
cell count [1]: 2550 cells | EC50 [2]: 9.12 µM

CCCCN1C(=O)/C(=C/C=C2\N(C)c3ccccc3C2(C)C)SC1=S
cell count [1]: 2910 cells | EC50 [2]: 2.65 µM

N#C/C(=C/c1ccc(N2CCOCC2)o1)C(=O)Nc1ccccc1
cell count [1]: 3080 cells | EC50 [2]: 6.7 µM

COc1cccc(C2C3CN(C)CC=C3C(C#N)=C(N)C2(C#N)C#N)c1OC (stereo not given)
cell count [1]: 2400 cells | EC50 [2]: 7.38 µM

O=C1S/C(=C\c2ccc(N3CCOCC3)o2)C(=O)N1c1ccccc1
cell count [1]: 1060 cells | EC50 [2]: > 16 µM (inactive)
